# Source: patent US20180298010A1, “PRMT5 INHIBITORS AND USES THEREOF” (Epizyme, Inc., priority 2012, published 2018)
# Key:
# PRMT5/MEP50 = target: T1, PRMT5/MEP50 (Homo sapiens, UniProt O14744); assay: PRMT5 Biochemical Assay (PRMT5/MEP50 enzyme assay on peptide substrate, 3H-SAM Flashplate)
# T1 construct: Flag-PRMT5; 6His-MEP50
# In short: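 FLAG-PRMT5/His-MEP50 from Sf9 cells (4 nM) preincubated 30 min at 25 °C with compound in 20 mM Bicine pH 7.6, 1 mM TCEP, 1% DMSO. Reaction started with 75 nM 3H-SAM on 40 nM biotinylated H4 1-15 peptide, stopped with cold SAM. Bound 3H-peptide counted on streptavidin Flashplates, normalised to DMSO and 100 uM SAH controls.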
# Z-138 cells = assay: Z-138 Proliferation Assay (Cell Titer Glo, 5 days); assay type: cell-based; details: Homo sapiens, 120 h
# From the text: Z-138 Proliferation Assay
# Z-138 suspension cells were purchased from ATCC (American Type Culture Collection, Manassas, Va.). RPMI/Glutamax medium, penicillin-streptomycin, heat inactivated fetal bovine serum were purchased from Life Technologies, Grand Island, N.Y., USA. V-bottom polypropylene 384-well plates were purchased from Greiner Bio-One, Monroe, N.C., USA. Cell culture 384-well white opaque plates were purchased from Perkin Elmer, Waltham, Mass., USA. Cell-Titer Glo® was purchased from Promega Corporation, Madison, Wis., USA. SpectraMax M5 plate reader was purchased from Molecular Devices LLC, Sunnyvale, Calif., USA.
# Z-138 suspension cells were maintained in growth medium (RPMI 1640 supplemented with 10% v/v heat inactivated fetal bovine serum and cultured at 37° C. under 5% CO2 Under assay conditions, cells were incubated in assay medium (RPMI 1640 supplemented with 10% v/v heat inactivated fetal bovine serum and 100 units/mL penicillin-streptomycin) at 37° C. under 5% CO2.
# For the assessment of the effect of compounds on the proliferation of the Z-138 cell line, exponentially growing cells were plated in 384-well white opaque plates at a density of 10,000 cells/ml in a final volume of 50 μl of assay medium. A compound source plate was prepared by performing triplicate nine-point 3-fold serial dilutions in DMSO, beginning at 10 mM (final top concentration of compound in the assay was 20 μM and the DMSO was 0.2%). A 100 nL aliquot from the compound stock plate was added to its respective well in the cell plate. […] After addition of compounds, assay plates were incubated for 5 days at 37° C., 5% CO2, relative humidity>90%.
# Cell viability was measured by quantitation of ATP present in the cell cultures, adding 35 μl of Cell Titer Glo® reagent to the cell plates. Luminescence was read in the SpectraMax M5 microplate reader. The concentration of compound inhibiting cell viability by 50% was determined using a 4-parametric fit of the normalized dose response curves.
# [1] = test system: Symmetric di-Methyl Arginine in Z-138 cells; assay: Z-138 Methylation Assay (In Cell Western for symmetric di-methyl arginine and DNA content); assay type: cell-based; details: Homo sapiens, read-out: ICW EC50
# From the text: Z-138 suspension cells were purchased from ATCC (American Type Culture Collection, Manassas, Va.). RPMI/Glutamax medium, penicillin-streptomycin, heat inactivated fetal bovine serum, and D-PBS were purchased from Life Technologies, Grand Island, N.Y., USA. Odyssey blocking buffer, 800CW goat anti-rabbit IgG (H+L) antibody, and Licor Odyssey infrared scanner were purchased from Licor Biosciences, Lincoln, Nebr., USA. Symmetric di-methyl arginine antibody was purchased from EMD Millipore, Billerica, Mass., USA. 16% Paraformaldehyde was purchased from Electron Microscopy Sciences, Hatfield, Pa., USA.
# Z-138 suspension cells were maintained in growth medium (RPMI 1640 supplemented with 10% v/v heat inactivated fetal bovine serum and 100 units/mL penicillin-streptomycin) and cultured at 37° C. under 5% CO2 […]
# Calculations: First, the ratio for each well was determined by:
# Each plate included fourteen control wells of DMSO only treatment (minimum inhibition) as well as fourteen control wells for maximum inhibition treated with 3 μM of a reference compound (Background wells). The average of the ratio values for each control type was calculated and used to determine the percent inhibition for each test well in the plate. […] Percent inhibition was determined and IC50 curves were generated using triplicate wells per concentration of compound.
# T1 sequence (O14744 with tags, fused parts or gaps): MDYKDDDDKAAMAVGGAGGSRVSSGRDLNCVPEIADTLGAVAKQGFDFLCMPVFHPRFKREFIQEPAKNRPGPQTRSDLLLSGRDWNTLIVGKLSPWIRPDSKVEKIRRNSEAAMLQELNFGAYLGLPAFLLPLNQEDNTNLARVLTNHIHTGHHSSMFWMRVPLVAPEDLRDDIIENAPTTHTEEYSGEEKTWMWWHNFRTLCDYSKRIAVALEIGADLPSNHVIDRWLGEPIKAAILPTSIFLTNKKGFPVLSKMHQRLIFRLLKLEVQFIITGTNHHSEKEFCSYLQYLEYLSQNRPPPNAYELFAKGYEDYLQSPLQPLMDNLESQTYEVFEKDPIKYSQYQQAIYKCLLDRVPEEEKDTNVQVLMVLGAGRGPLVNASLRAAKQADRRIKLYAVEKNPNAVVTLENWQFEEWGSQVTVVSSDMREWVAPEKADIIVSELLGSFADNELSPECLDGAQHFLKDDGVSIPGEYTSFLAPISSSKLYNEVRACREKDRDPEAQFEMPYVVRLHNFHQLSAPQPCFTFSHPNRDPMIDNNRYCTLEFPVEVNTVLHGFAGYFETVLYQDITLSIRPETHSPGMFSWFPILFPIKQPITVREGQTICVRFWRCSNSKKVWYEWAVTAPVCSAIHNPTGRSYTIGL
# T1 sequence (Q9BQA1 with tags, fused parts or gaps partner): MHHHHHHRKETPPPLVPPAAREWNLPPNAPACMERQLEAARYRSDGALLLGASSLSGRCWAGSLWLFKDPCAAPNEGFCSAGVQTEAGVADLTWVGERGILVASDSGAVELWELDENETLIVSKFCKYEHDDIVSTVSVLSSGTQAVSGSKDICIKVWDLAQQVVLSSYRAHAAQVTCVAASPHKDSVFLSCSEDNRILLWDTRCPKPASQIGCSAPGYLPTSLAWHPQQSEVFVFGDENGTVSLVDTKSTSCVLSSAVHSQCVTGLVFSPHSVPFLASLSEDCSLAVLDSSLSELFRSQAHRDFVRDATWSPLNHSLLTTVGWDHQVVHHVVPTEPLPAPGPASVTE
SMILES,IC50 (PRMT5/MEP50) [nM],EC50 (Z-138 cells) [nM],EC50 [1] [nM]
"OC(COc1cccc(-c2ccc3c(c2)OCO3)c1)CN1CCc2ccccc2C1 (stereo not shown) [Compound 59, 1-(3-(benzo[d][1,3]dioxol-5-yl)phenoxy)-3-(3,4-dihydroisoquinolin-2(1H)-yl)propan-2-ol]",101 to 1000,10000 to 40000,
"OC(COc1cccc(-c2ccc3nn[nH]c3c2)c1)CN1CCc2ccccc2C1 (stereo not shown) [Compound 84, 1-(3-(1H-benzo[d][1,2,3]triazol-6-yl)phenoxy)-3-(3,4-dihydroisoquinolin-2(1H)-yl)propan-2-ol]",101 to 1000,1000 to 10000,
"OC(COc1cccc(-c2ccc3ncsc3c2)c1)CN1CCc2ccccc2C1 (stereo not shown) [Compound 123, 1-(3-(benzo[d]thiazol-6-yl)phenoxy)-3-(3,4-dihydroisoquinolin-2(1H)-yl)propan-2-ol]",,10000 to 40000,1000 to 10000
COC(=O)c1cccc(-c2cccc(OCC(O)CN3CCc4ccccc4C3)c2)c1 (stereo not shown) [Compound 135],101 to 1000,> 20000,
CN1CCN(c2ccc(-c3cccc(OCC(O)CN4CCc5ccccc5C4)c3)cn2)CC1 (stereo not shown) [Compound 149],101 to 1000,1000 to 10000,
COC(=O)c1cncc(-c2cccc(OCC(O)CN3CCc4ccccc4C3)c2)c1 (stereo not shown) [Compound 180],1000 to 10000,> 20000,
"OC(COc1cccc(-c2ccc3ncn(C4CNC4)c3c2)c1)CN1CCc2ccccc2C1 (stereo not shown) [Compound 208, 1-(3-(1-(azetidin-3-yl)-1H-benzo[d]imidazol-6-yl)phenoxy)-3-(3,4-dihydroisoquinolin-2(1H)-yl)propan-2-ol]",101 to 1000,1000 to 10000,
CNC(=O)Cn1cnc2ccc(-c3cccc(OCC(O)CN4CCc5ccccc5C4)c3)cc21 (stereo not shown) [Compound 262],101 to 1000,1000 to 10000,
O=C(Cn1cnc2ccc(-c3cccc(OCC(O)CN4CCc5ccccc5C4)c3)cc21)N1CCOCC1 (stereo not shown) [Compound 264],101 to 1000,1000 to 10000,
Cn1cnc2ccc(-c3ccnc(NC[C@@H](O)CN4CCc5ccccc5C4)c3)cc21 [Compound 276],,1000 to 10000,
